The values that follow come from patent US10131673B2, “Piperidine substituted tricyclic pyrazolo[1,5-a]pyrimidine derivatives with inhibitory activity on the replication of the respiratory syncytial virus (RSV)” (priority 2014, dated 2018).

One data set has as its system rgRSV224 virus. As to the kind of experiment: microbe, parasite or virus in culture. Particulars: human respiratory syncytial virus, HeLa, 72 h, read-out: RSV HELA pEC50 (converted). In kind it is cell-based, respiratory syncytial virus (RSV).

Each structure is given as a SMILES string.

Procedure for HeLa cells: Black 384-well clear-bottom microtiter plates (Corning, Amsterdam, The Netherlands) were filled via acoustic drop ejection using the echo liquid handler (Labcyte, Sunnyvale, Calif.). 200 nL of compound stock solutions (100% DMSO) were transferred to the assay plates. 9 serial 4-fold dilutions of compound were made, creating per quadrant the same compound concentration. The assay was initiated by adding 10 μL of culture medium to each well (RPMI medium without phenol red, 10% FBS-heat inactivated, 0.04% gentamycin (50 mg/mL). All addition steps are done by using a multidrop dispenser (Thermo Scientific, Erembodegem, Belgium). Next, rgRSV224 virus (MOI=1) diluted in culture medium was added to the plates. rgRSV224 virus is an engineered virus that includes an additional GFP gene (Hallak L K, Spillmann D, Collins P L, Peeples M E. Glycosaminoglycan sulfation requirements for respiratory syncytial virus infection; Journal of virology (2000), 74(22), 10508-13) and was in-licensed from the NIH (Bethesda, Md., USA). Finally, 20 μL of a HeLa cell suspension (3,000 cells/well) were plated. Medium, virus- and mock-infected controls were included in each test. The wells contain 0.05% DMSO per volume. Cells were incubated at 37° C. in a 5% CO2 atmosphere. Three days post-virus exposure, viral replication was quantified by measuring GFP expression in the cells by an in house developed MSM laser microscope (Tibotec, Beerse, Belgium). The EC50 was defined as the 50% inhibitory concentration for GFP expression. In parallel, compounds were incubated for three days in a set of white 384-well microtiter plates (Corning) and the cytotoxicity of compounds in HeLa cells was determined by measuring the ATP content of the cells using the ATPlite kit (Perkin Elmer, Zaventem, Belgium) according to the manufacturer's instructions. The CC50 was defined as the 50% concentration for cytotoxicity.

In the case of `Cc1ccc(NS(C)(=O)=O)c(C(=O)N2CCCCC2c2cc3nc4c(c(N5CCOCC5)n3n2)CCCC4)c1` (racemic) [Compound P1, N-(4-methyl-2-(2-(9-morpholino-5,6,7,8-tetrahydropyrazolo[5,1-b]quinazolin-2-yl)piperidine-1-carbonyl)phenyl)methanesulfonamide], in the data set on rgRSV224 virus, the EC50 is 1.78 nM. Moreover, in the data set on HeLa cells, the “TOX HELA pCC50” value turned out to be 4.4.

For the compound `Cc1nc2cc(C3CCCCN3c3ncnc4cccc(C)c34)nn2c2c1CCCC2` (racemic) [Compound P36, 5-methyl-2-(1-(5-methylquinazolin-4-yl)piperidin-2-yl)-6,7,8,9-tetrahydropyrazolo[1,5-a]quinazoline], the EC50 with rgRSV224 virus was 977 nM. Further, in the data set with HeLa cells, the “TOX HELA pCC50” value stood at 4.6.

`Cc1ccc(NS(C)(=O)=O)c(C(=O)N2CCCC[C@@H]2c2cc3nc4c(c(N5CCOCC5)n3n2)CCCC4)c1` [Compound P2, (R)—N-(4-methyl-2-(2-(9-morpholino-5,6,7,8-tetrahydropyrazolo[5,1-b]quinazolin-2-yl)-piperidine-1-carbonyl)phenyl)methanesulfonamide]: the EC50 in the data set on rgRSV224 virus is 13.2 nM. Besides, the “TOX HELA pCC50” value in the data set with HeLa cells turned out to be 4.3.

On to `Cc1ccc(NS(C)(=O)=O)c(C(=O)N2CCCC[C@H]2c2cc3nc4c(c(N5CCOCC5)n3n2)CCCC4)c1` [Compound P3, (S)—N-(4-methyl-2-(2-(9-morpholino-5,6,7,8-tetrahydropyrazolo[5,1-b]quinazolin-2-yl)piperidine-1-carbonyl)-phenyl)methanesulfonamide], for which the EC50 with rgRSV224 virus is 0.562 nM. The “TOX HELA pCC50” value in the data set with HeLa cells was 4.5.

For the compound `Cc1ccc2ncnc(N3CCCCC3c3cc4nc5c(c(N6CCOCC6)n4n3)CCCC5)c2c1` (centres unmarked) [Compound P4, 4-(2-(1-(6-methylquinazolin-4-yl)piperidin-2-yl)-5,6,7,8-tetrahydropyrazolo[5,1-b]quinazolin-9-yl)morpholine], the EC50 in the data set with rgRSV224 virus was 166 nM. Moreover, the “TOX HELA pCC50” value in the data set with HeLa cells turned out to be 4.7.

For `Cc1cccc2ncnc(N3CCCCC3c3cc4nc5c(c(N6CCOCC6)n4n3)CCCC5)c12` (centres unmarked) [Compound P5, 4-(2-(1-(5-methylquinazolin-4-yl)piperidin-2-yl)-5,6,7,8-tetrahydropyrazolo[5,1-b]quinazolin-9-yl)morpholine], in the data set with rgRSV224 virus, the EC50 was 275 nM. Also, the “TOX HELA pCC50” value with HeLa cells stood at 4.6.

Turning to `Cc1cccc2nc(Cl)nc(N3CCCCC3c3cc4nc5c(c(N6CCOCC6)n4n3)CCCC5)c12` (centres unmarked) [Compound P6, 4-(2-(1-(2-chloro-5-methylquinazolin-4-yl)piperidin-2-yl)-5,6,7,8-tetrahydropyrazolo[5,1-b]quinazolin-9-yl)morpholine], in the data set on rgRSV224 virus, the EC50 is 1200 nM. In addition, in the data set on HeLa cells, the “TOX HELA pCC50” value was determined as 4.8.

For the compound `Cc1cccc2nc(NS(C)(=O)=O)nc(N3CCCCC3c3cc4nc5c(c(N6CCOCC6)n4n3)CCCC5)c12` (centres unmarked) [Compound P7, N-(5-methyl-4-(2-(9-morpholino-5,6,7,8-tetrahydropyrazolo[5,1-b]-quinazolin-2-yl)piperidin-1-yl)quinazolin-2-yl)methanesulfonamide], the EC50 with rgRSV224 virus is 6.03 nM. Further, the “TOX HELA pCC50” value with HeLa cells turned out to be 4.2.

For the compound `Cc1ccc2nc(Cl)nc(N3CCCCC3c3cc4nc5c(c(N6CCOCC6)n4n3)CCCC5)c2c1` (centres unmarked) [Compound P8, 4-(2-(1-(2-chloro-6-methylquinazolin-4-yl)piperidin-2-yl)-5,6,7,8-tetrahydropyrazolo[5,1-b]quinazolin-9-yl)morpholine], in the data set with rgRSV224 virus, the EC50 was 162 nM. Also, the “TOX HELA pCC50” value in the data set on HeLa cells is 4.5.

Regarding `Cc1ccc2nc(NS(C)(=O)=O)nc(N3CCCCC3c3cc4nc5c(c(N6CCOCC6)n4n3)CCCC5)c2c1` (centres unmarked) [Compound P9, N-(6-methyl-4-(2-(9-morpholino-5,6,7,8-tetrahydropyrazolo[5,1-b]-quinazolin-2-yl)piperidin-1-yl)quinazolin-2-yl)methanesulfonamide], in the data set on rgRSV224 virus, the EC50 was 13.5 nM. The “TOX HELA pCC50” value in the data set on HeLa cells is on record as 4.3.
